Converted amounts (≈) assume the structure as drawn.
Assays:
[1] = tested on: Staphylococcus aureus; assay: Antimicrobial activity against Staphylococcus aureus ATCC 25923 after 24 hrs by standard broth microdilution method; type: functional; conditions: ATCC 25923, 24 h
[2] = tested on: Trichophyton mentagrophytes; assay: Antifungal activity against Trichophyton mentagrophytes clinical isolate after 72 to 96 hrs by standard broth microdilution method; type: functional
[3] = tested on: Candida albicans; assay: Antifungal activity against Candida albicans clinical isolate after 24 to 48 hrs by standard broth microdilution method; type: functional
[4] = tested on: Aspergillus fumigatus; assay: Antifungal activity against Aspergillus fumigatus clinical isolate after 72 to 96 hrs by standard broth microdilution method; type: functional
[5] = tested on: Plasmodium falciparum; assay: Antiplasmodial activity against chloroquine-resistant Plasmodium falciparum K1 infected after 72 hrs by Malaria SYBR Green I-staining based fluorescence assay; type: functional, organism-based; conditions: K1, 72 h
[6] = tested on: Escherichia coli; assay: Antimicrobial activity against Escherichia coli ATCC 9637 after 24 hrs by standard broth microdilution method; type: functional; conditions: ATCC 9637, 24 h
[7] = tested on: Plasmodium falciparum; assay: Antiplasmodial activity against chloroquine-sensitive Plasmodium falciparum 3D7 infected after 72 hrs by Malaria SYBR Green I-staining based fluorescence assay; type: functional, organism-based; conditions: 3D7, 72 h
[8] = tested on: Klebsiella pneumoniae; assay: Antimicrobial activity against Klebsiella pneumoniae ATCC 27736 after 24 hrs by standard broth microdilution method; type: functional; conditions: ATCC 27736, 24 h
[9] = tested on: Pseudomonas aeruginosa; assay: Antimicrobial activity against Pseudomonas aeruginosa ATCC BAA-427 after 24 hrs by standard broth microdilution method; type: functional; conditions: ATCC BAA-427, 24 h
[10] = tested on: Cryptococcus neoformans; assay: Antifungal activity against Cryptococcus neoformans clinical isolate after 24 to 48 hrs by standard broth microdilution method; type: functional
[11] = tested on: Sporothrix schenckii; assay: Antifungal activity against Sporothrix schenckii clinical isolate after 72 to 96 hrs by standard broth microdilution method; type: functional
[12] = tested on: Candida parapsilosis; assay: Antifungal activity against Candida parapsilosis ATCC […] after 72 to 96 hrs by standard broth microdilution method; type: functional; conditions: Lodderomyces parapsilosis
[13] = Selectivity index, ratio of IC50 for african green monkey Vero cells to IC50 for chloroquine-sensitive Plasmodium falciparum 3D7; type: toxicity, cell-based; conditions: read-out: Ratio IC50

For `Clc1ccc(/N=C(\NCCCNc2ccnc3cc(Cl)ccc23)Nc2ccc(Oc3cc(Cl)ccc3Cl)cc2)cc1`, the MIC [1] was greater than 50 µg/mL, the MIC [2] was 50 µg/mL (≈ 80 µM) and the MIC [3] was greater than 50 µg/mL. For the same compound, the MIC [4] was greater than 50 µg/mL, the IC50 [5] was greater than 800 nM and the MIC [6] was greater than 50 µg/mL. The IC50 [7] was greater than 800 nM, the MIC [8] was greater than 50 µg/mL and the MIC [9] was greater than 50 µg/mL. It also gave an MIC [10] greater than 50 µg/mL, an MIC [11] of 50 µg/mL (≈ 80 µM) and an MIC [12] greater than 50 µg/mL.
For `COc1ccc(Oc2ccccc2N/C(=N/c2ccc(Cl)cc2)NCCCCNc2ccnc3cc(Cl)ccc23)cc1`, the MIC [1] was 50 µg/mL (≈ 83.3 µM), the MIC [3] was 50 µg/mL (≈ 83.3 µM) and the IC50 [5] was greater than 800 nM. The selectivity ratio [13] was 62.8, the MIC [6] was greater than 50 µg/mL and the IC50 [7] was 124 nM. For the same compound, the MIC [8] was greater than 50 µg/mL, the MIC [9] was greater than 50 µg/mL and the MIC [10] was 50 µg/mL (≈ 83.3 µM). The MIC [11] was 25 µg/mL (≈ 41.6 µM).
With `OC(Cn1cncn1)(Cn1cncn1)c1ccc(F)cc1F` [FLUCONAZOLE] the MIC [2] was 1 µg/mL (≈ 3.27 µM), the MIC [3] was 0.5 µg/mL (≈ 1.63 µM) and the MIC [4] was 2 µg/mL (≈ 6.53 µM). It also gave an MIC [10] of 1 µg/mL (≈ 3.27 µM), an MIC [11] of 2 µg/mL (≈ 6.53 µM) and an MIC [12] of 1 µg/mL (≈ 3.27 µM).
`COc1ccc(Oc2ccccc2N/C(=N/c2ccccc2)NCCNc2ccnc3cc(Cl)ccc23)cc1` gave an MIC [1] of 50 µg/mL (≈ 92.9 µM), an MIC [2] greater than 50 µg/mL and an MIC [3] greater than 50 µg/mL. For the same compound, the MIC [4] was greater than 50 µg/mL, the IC50 [5] was 193 nM and the MIC [6] was greater than 50 µg/mL. It also gave an IC50 [7] of 42 nM, an MIC [8] greater than 50 µg/mL and an MIC [9] greater than 50 µg/mL. The MIC [10] was greater than 50 µg/mL, the MIC [11] was 50 µg/mL (≈ 92.9 µM) and the MIC [12] was greater than 50 µg/mL.
`COC(=O)/C(C)=C/c1ccc(Oc2ccccc2N/C(=N/c2cccc(Cl)c2)NCc2ccccc2)cc1` showed an MIC [1] greater than 50 µg/mL, an MIC [2] greater than 50 µg/mL and an MIC [3] greater than 50 µg/mL. It also gave an MIC [4] greater than 50 µg/mL, an IC50 [5] greater than 1200 nM and an MIC [6] greater than 50 µg/mL. It also gave an IC50 [7] greater than 800 nM, an MIC [8] of 12.5 µg/mL (≈ 23.8 µM) and an MIC [9] greater than 50 µg/mL. For the same compound, the MIC [10] was greater than 50 µg/mL, the MIC [11] was greater than 50 µg/mL and the MIC [12] was greater than 50 µg/mL.
`COC(=O)/C(C)=C/c1ccc(Oc2ccccc2N/C(=N/c2ccccc2)NCc2ccccc2)cc1` gave an MIC [1] of 25 µg/mL (≈ 50.9 µM), an MIC [2] greater than 50 µg/mL and an MIC [3] greater than 50 µg/mL. The MIC [4] was greater than 50 µg/mL, the IC50 [5] was greater than 1200 nM and the MIC [6] was greater than 50 µg/mL. It also gave an IC50 [7] greater than 1200 nM, an MIC [8] of 12.5 µg/mL (≈ 25.4 µM) and an MIC [9] greater than 50 µg/mL. The MIC [10] was greater than 50 µg/mL, the MIC [11] was greater than 50 µg/mL and the MIC [12] was greater than 50 µg/mL.

— ChEMBL document CHEMBL3232804, “Synthesis and evaluation of new diaryl ether and quinoline hybrids as potential antiplasmodial and antimicrobial agents” (Bioorg Med Chem Lett, 2014)
